Legend:
Assay in all cases: relative viability (nuclei count vs DMSO), 5 days (fraction); higher = more cells survive
LOU-NH91 = tested on: LOU-NH91
Outline: (§1)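 Relative viability equals treated-well nuclei counts divided by vehicle-well nuclei counts. Counts came from 4× images of lung cancer cell lines grown in 1536-well plates for 5 days after pin-tool dosing on the day after seeding. Dosing used one drug alone or a fixed anchor-drug dose plus five library-drug doses (not always all listed) in √10 steps, and values are medians of duplicate plates.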

ABC-1 = tested on: ABC-1
Outline: as §1

NCI-H2170 = tested on: NCI-H2170
Outline: as §1

NCI-H2085 = tested on: NCI-H2085
Outline: as §1

NCI-H2023 = tested on: NCI-H2023
Outline: as §1

LCLC-97TM1 = tested on: LCLC-97TM1
Outline: as §1

NCI-H23 = tested on: NCI-H23
Outline: as §1

NCI-H2342 = tested on: NCI-H2342
Outline: as §1

NCI-H2009 = tested on: NCI-H2009
Outline: as §1

NCI-H1437 = tested on: NCI-H1437
Outline: as §1

ChaGo-K-1 = tested on: ChaGo-K-1
Outline: as §1

NCI-H1623 = tested on: NCI-H1623
Outline: as §1

NCI-H2405 = tested on: NCI-H2405
Outline: as §1

UMC-11 = tested on: UMC-11
Outline: as §1

RERF-LC-KJ = tested on: RERF-LC-KJ
Outline: as §1

HOP-62 = tested on: HOP-62
Outline: as §1

NCI-H322M = tested on: NCI-H322M
Outline: as §1

SK-MES-1 = tested on: SK-MES-1
Outline: as §1

HCC-78 = tested on: HCC-78
Outline: as §1

NCI-H727 = tested on: NCI-H727
Outline: as §1

NCI-H1648 = tested on: NCI-H1648
Outline: as §1

NCI-H650 = tested on: NCI-H650
Outline: as §1

NCI-H1355 = tested on: NCI-H1355
Outline: as §1

NCI-H1755 = tested on: NCI-H1755
Outline: as §1

`CCCCCCCCCCCC1=C(O)C(=O)C=C(O)C1=O` [Embelin] + Cc1cc(Nc2cc(N3CCN(C)CC3)nc(Sc3ccc(NC(=O)C4CC4)cc3)n2)n[nH]1 [Tozasertib] (partner 0.1 µM) showed a relative viability (LOU-NH91; first compound 0.08 µM) of 0.751, a relative viability (LOU-NH91; first compound 0.8 µM) of 0.827 and a relative viability (LOU-NH91; first compound 2.53 µM) of 0.749. It also gave a relative viability (LOU-NH91; first compound 8 µM) of 0.808, a relative viability (ABC-1; first compound 0.08 µM) of 0.189 and a relative viability (ABC-1; first compound 0.8 µM) of 0.166. For the same compound, the relative viability (ABC-1; first compound 2.53 µM) was 0.181, the relative viability (ABC-1; first compound 8 µM) was 0.148 and the relative viability (NCI-H2170; first compound 0.08 µM) was 0.798. It also gave a relative viability (NCI-H2170; first compound 0.8 µM) of 0.761, a relative viability (NCI-H2170; first compound 2.53 µM) of 0.818 and a relative viability (NCI-H2170; first compound 8 µM) of 0.731. The relative viability (NCI-H2085; first compound 0.08 µM) was 0.784, the relative viability (NCI-H2085; first compound 0.8 µM) was 0.939 and the relative viability (NCI-H2085; first compound 2.53 µM) was 0.884. The relative viability (NCI-H2085; first compound 8 µM) was 0.859, the relative viability (NCI-H2023; first compound 0.08 µM) was 0.412 and the relative viability (NCI-H2023; first compound 0.8 µM) was 0.406. For the same compound, the relative viability (NCI-H2023; first compound 2.53 µM) was 0.369, the relative viability (NCI-H2023; first compound 8 µM) was 0.302 and the relative viability (LCLC-97TM1; first compound 0.08 µM) was 0.186. It also gave a relative viability (LCLC-97TM1; first compound 0.8 µM) of 0.239, a relative viability (LCLC-97TM1; first compound 2.53 µM) of 0.265 and a relative viability (LCLC-97TM1; first compound 8 µM) of 0.218. For the same compound, the relative viability (NCI-H23; first compound 0.08 µM) was 0.47, the relative viability (NCI-H23; first compound 0.8 µM) was 0.462 and the relative viability (NCI-H23; first compound 2.53 µM) was 0.36. For the same compound, the relative viability (NCI-H23; first compound 8 µM) was 0.34, the relative viability (NCI-H2342; first compound 0.08 µM) was 0.6 and the relative viability (NCI-H2342; first compound 0.8 µM) was 0.641. It also gave a relative viability (NCI-H2342; first compound 2.53 µM) of 0.527, a relative viability (NCI-H2342; first compound 8 µM) of 0.479 and a relative viability (NCI-H2009; first compound 0.08 µM) of 0.753. For the same compound, the relative viability (NCI-H2009; first compound 0.8 µM) was 0.915, the relative viability (NCI-H2009; first compound 2.53 µM) was 0.798 and the relative viability (NCI-H2009; first compound 8 µM) was 0.714. It also gave a relative viability (NCI-H1437; first compound 0.08 µM) of 0.41, a relative viability (NCI-H1437; first compound 0.8 µM) of 0.417 and a relative viability (NCI-H1437; first compound 2.53 µM) of 0.457. It also gave a relative viability (NCI-H1437; first compound 8 µM) of 0.448, a relative viability (ChaGo-K-1; first compound 0.08 µM) of 0.243 and a relative viability (ChaGo-K-1; first compound 0.8 µM) of 0.239. The relative viability (ChaGo-K-1; first compound 2.53 µM) was 0.212, the relative viability (ChaGo-K-1; first compound 8 µM) was 0.243 and the relative viability (NCI-H1623; first compound 0.08 µM) was 0.44. It also gave a relative viability (NCI-H1623; first compound 0.8 µM) of 0.412, a relative viability (NCI-H1623; first compound 2.53 µM) of 0.45 and a relative viability (NCI-H1623; first compound 8 µM) of 0.423. For the same compound, the relative viability (NCI-H2405; first compound 0.08 µM) was 0.816, the relative viability (NCI-H2405; first compound 0.8 µM) was 0.798 and the relative viability (NCI-H2405; first compound 2.53 µM) was 0.847. For the same compound, the relative viability (NCI-H2405; first compound 8 µM) was 0.826, the relative viability (UMC-11; first compound 0.08 µM) was 0.211 and the relative viability (UMC-11; first compound 0.8 µM) was 0.199. It also gave a relative viability (UMC-11; first compound 2.53 µM) of 0.184, a relative viability (UMC-11; first compound 8 µM) of 0.192 and a relative viability (RERF-LC-KJ; first compound 0.08 µM) of 0.567. The relative viability (RERF-LC-KJ; first compound 0.8 µM) was 0.532, the relative viability (RERF-LC-KJ; first compound 2.53 µM) was 0.564 and the relative viability (RERF-LC-KJ; first compound 8 µM) was 0.368. The relative viability (HOP-62; first compound 0.08 µM) was 0.313, the relative viability (HOP-62; first compound 0.8 µM) was 0.456 and the relative viability (HOP-62; first compound 2.53 µM) was 0.377. The relative viability (HOP-62; first compound 8 µM) was 0.387, the relative viability (NCI-H322M; first compound 0.08 µM) was 0.526 and the relative viability (NCI-H322M; first compound 0.8 µM) was 0.52. The relative viability (NCI-H322M; first compound 2.53 µM) was 0.521, the relative viability (NCI-H322M; first compound 8 µM) was 0.503 and the relative viability (SK-MES-1; first compound 0.08 µM) was 0.959. The relative viability (SK-MES-1; first compound 0.8 µM) was 0.989, the relative viability (SK-MES-1; first compound 2.53 µM) was 0.998 and the relative viability (SK-MES-1; first compound 8 µM) was 0.621. For the same compound, the relative viability (HCC-78; first compound 0.08 µM) was 0.519, the relative viability (HCC-78; first compound 0.8 µM) was 0.511 and the relative viability (HCC-78; first compound 2.53 µM) was 0.697. The relative viability (HCC-78; first compound 8 µM) was 0.437, the relative viability (NCI-H727; first compound 0.08 µM) was 0.552 and the relative viability (NCI-H727; first compound 0.8 µM) was 0.565. For the same compound, the relative viability (NCI-H727; first compound 2.53 µM) was 0.634, the relative viability (NCI-H727; first compound 8 µM) was 0.675 and the relative viability (NCI-H1648; first compound 0.08 µM) was 0.472. The relative viability (NCI-H1648; first compound 0.8 µM) was 0.627, the relative viability (NCI-H1648; first compound 2.53 µM) was 0.366 and the relative viability (NCI-H1648; first compound 8 µM) was 0.582. The relative viability (NCI-H650; first compound 0.08 µM) was 0.823, the relative viability (NCI-H650; first compound 0.8 µM) was 1.04 and the relative viability (NCI-H650; first compound 2.53 µM) was 0.869. The relative viability (NCI-H650; first compound 8 µM) was 0.724, the relative viability (NCI-H1355; first compound 0.08 µM) was 0.608 and the relative viability (NCI-H1355; first compound 0.8 µM) was 0.704. It also gave a relative viability (NCI-H1355; first compound 2.53 µM) of 0.546, a relative viability (NCI-H1355; first compound 8 µM) of 0.499 and a relative viability (NCI-H1755; first compound 0.08 µM) of 0.666. It also gave a relative viability (NCI-H1755; first compound 0.8 µM) of 0.647, a relative viability (NCI-H1755; first compound 2.53 µM) of 0.605 and a relative viability (NCI-H1755; first compound 8 µM) of 0.555.

From the supplement of paper PMC10307832
